Assay results from patent publication US9320733B2, “Assessment and modulation of cerebrospinal fluid for head pain” (priority 2010, dated 2016).

Test system: patient with headache (CSF pressures 13-14 cmW)
Assay: Case report (Example 1): one patient with 10 years of headache and normal CSF pressure, treated by CSF removal via lumbar puncture and then Diamox
Type: in vivo, human
Method: Therefore more CSF was drained 10 ml total. […] For example triptans may be combined with Diamox or diuretics, triptans may be combined with NSAM or Lumbar puncture, shunts or intraocular drainage procedures may be use singularly or together.

## CC(=O)Nc1nnc(S(N)(=O)=O)s1 [Diamox, acetazolamide]
3 days after LP with 10 ml CSF drained and start of Diamox, PDPH lost on brief discontinuation
  postdural puncture headache (PDPH) while on treatment: developed postdurai puncture headache
After removal of 10 ml CSF by LP, 3 days later
  usual headache after being placed on Diamox: total absence of their usual headache
Low dose Diamox, after CSF removal
  symptom status on maintenance treatment: symptom free

## CC1(C)O[C@@H]2[C@@H](CO[C@@]3(COS(N)(=O)=O)OC(C)(C)O[C@@H]23)O1 [Topamax, topiramate]
10 years of headache, before CSF removal
  response of the major headache component to medication: refractory to treatment
